Source: ChEMBL document CHEMBL1201862, “PubChem BioAssay data set” (2004)
Calls of active or inactive are those of the source.

Columns and labels:
[1] = biological target: T1, Sentrin-specific protease 7 (Homo sapiens, UniProt Q9BQF6); format: functional;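 note: Luminescence-based dose-response confirmation of ultra-high-throughput screening hits, measuring inhibition of SENP7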
T1 sequence (Q9BQF6 whole entry): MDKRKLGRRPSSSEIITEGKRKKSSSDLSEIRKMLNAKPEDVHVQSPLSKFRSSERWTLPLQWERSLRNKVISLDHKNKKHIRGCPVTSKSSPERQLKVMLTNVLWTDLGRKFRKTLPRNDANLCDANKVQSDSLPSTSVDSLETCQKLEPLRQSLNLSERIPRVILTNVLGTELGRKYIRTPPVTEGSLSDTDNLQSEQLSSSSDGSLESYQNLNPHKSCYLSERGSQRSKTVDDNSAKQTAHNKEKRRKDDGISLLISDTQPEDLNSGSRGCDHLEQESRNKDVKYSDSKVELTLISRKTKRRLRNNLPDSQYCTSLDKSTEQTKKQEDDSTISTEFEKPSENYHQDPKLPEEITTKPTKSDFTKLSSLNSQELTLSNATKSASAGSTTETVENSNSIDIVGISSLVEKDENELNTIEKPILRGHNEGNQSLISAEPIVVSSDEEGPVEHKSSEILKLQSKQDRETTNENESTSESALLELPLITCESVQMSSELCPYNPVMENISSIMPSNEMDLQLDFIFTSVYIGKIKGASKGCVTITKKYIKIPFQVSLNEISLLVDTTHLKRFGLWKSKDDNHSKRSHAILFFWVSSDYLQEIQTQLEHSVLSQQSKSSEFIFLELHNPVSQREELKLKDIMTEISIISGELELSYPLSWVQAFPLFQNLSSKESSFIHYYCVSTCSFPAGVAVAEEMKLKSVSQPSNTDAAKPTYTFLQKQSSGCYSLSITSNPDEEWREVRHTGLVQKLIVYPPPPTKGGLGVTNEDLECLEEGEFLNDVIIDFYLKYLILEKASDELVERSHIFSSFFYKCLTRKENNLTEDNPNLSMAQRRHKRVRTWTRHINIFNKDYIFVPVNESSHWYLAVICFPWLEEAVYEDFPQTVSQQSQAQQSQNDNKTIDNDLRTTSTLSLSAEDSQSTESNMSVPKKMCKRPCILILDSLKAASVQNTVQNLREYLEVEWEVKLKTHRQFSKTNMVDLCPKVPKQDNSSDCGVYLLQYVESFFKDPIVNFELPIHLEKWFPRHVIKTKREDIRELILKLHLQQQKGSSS

[2] = biological target: T2, Sentrin-specific protease 8 (Homo sapiens, UniProt Q96LD8); format: functional;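 note: luminescence read-out of SENP8 inhibition, dose-response confirmation following an ultra-high-throughput screen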
T2 sequence (Q96LD8 whole entry): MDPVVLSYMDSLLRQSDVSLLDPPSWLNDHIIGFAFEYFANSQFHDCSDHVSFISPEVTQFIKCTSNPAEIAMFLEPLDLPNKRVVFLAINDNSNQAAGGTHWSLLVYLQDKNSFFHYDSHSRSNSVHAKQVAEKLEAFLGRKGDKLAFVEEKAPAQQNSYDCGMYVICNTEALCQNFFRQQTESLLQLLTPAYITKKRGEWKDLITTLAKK

[3] = biological target: T3, Sentrin-specific protease 6 (Homo sapiens, UniProt Q9GZR1); format: functional;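 note: Luminescence-based dose-response confirmatory assay of SENP6 inhibition, following up an ultra-high-throughput screen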
T3 sequence (Q9GZR1 whole entry): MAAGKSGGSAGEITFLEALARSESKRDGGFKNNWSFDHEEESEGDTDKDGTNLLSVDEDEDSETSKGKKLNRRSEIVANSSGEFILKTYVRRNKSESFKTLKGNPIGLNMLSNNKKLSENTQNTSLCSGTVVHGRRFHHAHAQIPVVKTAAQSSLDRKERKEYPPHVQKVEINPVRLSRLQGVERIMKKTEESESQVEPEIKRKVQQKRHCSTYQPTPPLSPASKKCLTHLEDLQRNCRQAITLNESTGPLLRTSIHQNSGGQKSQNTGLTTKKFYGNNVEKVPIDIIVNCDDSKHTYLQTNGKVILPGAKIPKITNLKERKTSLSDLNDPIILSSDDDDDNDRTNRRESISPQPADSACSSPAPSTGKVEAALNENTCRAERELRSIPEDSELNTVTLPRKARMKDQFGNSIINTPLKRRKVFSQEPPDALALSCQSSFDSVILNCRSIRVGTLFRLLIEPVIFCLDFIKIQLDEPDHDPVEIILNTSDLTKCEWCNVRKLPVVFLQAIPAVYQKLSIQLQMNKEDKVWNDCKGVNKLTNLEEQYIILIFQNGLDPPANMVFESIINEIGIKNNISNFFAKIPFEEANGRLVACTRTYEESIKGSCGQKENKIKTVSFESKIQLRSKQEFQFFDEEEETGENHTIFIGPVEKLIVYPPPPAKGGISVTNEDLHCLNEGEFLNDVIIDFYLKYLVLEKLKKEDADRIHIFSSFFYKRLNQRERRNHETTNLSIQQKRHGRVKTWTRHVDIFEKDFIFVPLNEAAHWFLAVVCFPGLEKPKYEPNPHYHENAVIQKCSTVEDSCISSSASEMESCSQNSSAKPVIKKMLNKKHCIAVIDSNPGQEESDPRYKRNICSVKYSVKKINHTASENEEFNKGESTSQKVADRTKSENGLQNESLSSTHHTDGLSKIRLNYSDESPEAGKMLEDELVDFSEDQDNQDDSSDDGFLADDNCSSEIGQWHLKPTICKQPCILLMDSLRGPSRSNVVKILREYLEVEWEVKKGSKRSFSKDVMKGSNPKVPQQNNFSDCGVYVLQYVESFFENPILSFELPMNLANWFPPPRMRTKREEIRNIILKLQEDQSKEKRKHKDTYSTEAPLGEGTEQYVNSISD

[4] = biological target: ATP-dependent molecular chaperone HSP82 (Candida albicans (strain WO-1) (Yeast), UniProt C4YTQ8); test: loss of DOC-induced GRE-beta-galactosidase reporter signal, dose response, Hsp90 inhibitor project, S. cerevisiae, luminescence (AID 2400); format: functional, cell-based;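 note: beta-galactosidase luminescence from glucocorticoid response element reporter as proxy for Hsp90 function; inhibitor potency where signal loss means Hsp90 inhibition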
Chain of ATP-dependent molecular chaperone HSP82 (C4YTQ8 whole entry): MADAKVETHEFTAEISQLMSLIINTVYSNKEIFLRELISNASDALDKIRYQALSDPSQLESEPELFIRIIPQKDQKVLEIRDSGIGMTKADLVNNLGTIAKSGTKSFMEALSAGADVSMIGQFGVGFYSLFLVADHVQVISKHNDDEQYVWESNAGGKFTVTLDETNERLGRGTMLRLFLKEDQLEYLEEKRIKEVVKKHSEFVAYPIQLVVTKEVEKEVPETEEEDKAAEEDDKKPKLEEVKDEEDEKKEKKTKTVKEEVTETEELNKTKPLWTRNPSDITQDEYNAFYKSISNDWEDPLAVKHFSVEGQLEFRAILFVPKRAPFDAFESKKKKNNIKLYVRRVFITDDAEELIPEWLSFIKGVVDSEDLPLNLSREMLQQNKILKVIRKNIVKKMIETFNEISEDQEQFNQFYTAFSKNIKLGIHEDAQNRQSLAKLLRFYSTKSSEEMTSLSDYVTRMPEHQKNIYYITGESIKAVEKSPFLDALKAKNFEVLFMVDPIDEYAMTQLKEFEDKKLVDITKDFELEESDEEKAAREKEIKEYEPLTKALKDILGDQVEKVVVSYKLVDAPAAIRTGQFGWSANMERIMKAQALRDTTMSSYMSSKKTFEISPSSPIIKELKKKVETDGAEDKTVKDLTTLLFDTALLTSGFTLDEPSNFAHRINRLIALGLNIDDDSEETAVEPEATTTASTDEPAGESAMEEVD

[5] = growth suppression of PTEN-null colon cells, dose response, cell-based, HCT116 PTEN knockout (AID 1047); format: functional;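 note: HCT116 colon tumor cells with PTEN knocked out; cells exposed to compound for 60 hours before readout; potency for loss of cell viability measured by luminescence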
[6] = biological target: Serine/threonine-protein phosphatase (Homo sapiens, UniProt Q9BPW0); test: PP5 phosphatase inhibitors, dose response, biochemical, fluorescence (AID 2395)
Chain of Serine/threonine-protein phosphatase (Q9BPW0 whole entry): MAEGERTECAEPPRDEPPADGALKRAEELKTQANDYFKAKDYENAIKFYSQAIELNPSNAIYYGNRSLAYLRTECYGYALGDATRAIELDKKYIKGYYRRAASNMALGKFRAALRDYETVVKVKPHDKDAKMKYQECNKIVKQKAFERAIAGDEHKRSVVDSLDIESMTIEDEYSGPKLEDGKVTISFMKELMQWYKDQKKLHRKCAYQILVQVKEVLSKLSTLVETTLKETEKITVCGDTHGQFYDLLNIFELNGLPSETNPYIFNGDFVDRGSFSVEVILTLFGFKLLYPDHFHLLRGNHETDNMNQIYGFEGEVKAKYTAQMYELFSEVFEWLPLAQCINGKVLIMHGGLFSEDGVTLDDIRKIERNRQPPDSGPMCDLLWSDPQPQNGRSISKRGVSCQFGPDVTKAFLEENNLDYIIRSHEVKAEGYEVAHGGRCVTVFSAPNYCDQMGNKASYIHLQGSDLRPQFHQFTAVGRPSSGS

[7] = biological target: Mitochondrial peptide methionine sulfoxide reductase (Bos taurus, UniProt P54149); format: functional;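 note: absorbance read-out, biochemical high-throughput dose-response screen for MsrA inhibitors, confirmatory; recombinant bovine MsrA coupled to E. coli TrxB with NADPH and selenocystamine; potency is for inhibitors of MsrA activity on DMSO substrate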
Chain of Mitochondrial peptide methionine sulfoxide reductase (P54149 whole entry): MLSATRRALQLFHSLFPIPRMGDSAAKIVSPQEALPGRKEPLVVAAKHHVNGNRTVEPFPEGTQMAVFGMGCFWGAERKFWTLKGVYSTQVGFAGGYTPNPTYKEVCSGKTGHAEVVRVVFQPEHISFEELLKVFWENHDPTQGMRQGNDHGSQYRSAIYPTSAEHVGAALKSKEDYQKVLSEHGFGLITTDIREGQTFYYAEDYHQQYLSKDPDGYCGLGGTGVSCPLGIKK

For Cc1ccc(NC2=CC(=O)C(=O)c3ccccc32)cc1, the IC50 [1] was 36.7 µM (active), the IC50 [2] was 21.6 µM (active) and the IC50 [3] was 13.5 µM (active). For the same compound, the EC50 [4] was 40.7 µM (active) and the EC50 [5] was 6.79 µM (active).
In the case of O=C(O)c1ccc(S(=O)(=O)/N=C2\C=C(Nc3ccccc3F)C(=O)c3ccccc32)cc1, the IC50 [6] is reported as > 67 µM (not active) and the IC50 [7] is reported as 14.2 µM (inactive).
